# Laboratory results as given in patent US20220370636A1, “NICOTINAMIDE ADENINE DINUCLEOTIDE ACTIVATOR AND USE THEREOF” (University of South Florida, priority 2021, published 2022).
# Key:
# recombinant Nampt = recombinant Nampt (Homo sapiens, UniProt P43490); experiment: Recombinant Nampt enzymatic activity assay; conditions: enzyme assay with recombinant Nampt
# PI3K = experiment: Ex vivo ischemia reperfusion with PI3K inhibitor LY294002, pAKT Western blot; set-up: species or system mice; conditions: WT hearts; LY294002 15 μM prior to global ischemia
# [1] = tested on: C57Bl/6J mice on a high-fat diet; conditions: cited from earlier work
# Chain of recombinant Nampt (P43490 whole entry, the tested form may be a part): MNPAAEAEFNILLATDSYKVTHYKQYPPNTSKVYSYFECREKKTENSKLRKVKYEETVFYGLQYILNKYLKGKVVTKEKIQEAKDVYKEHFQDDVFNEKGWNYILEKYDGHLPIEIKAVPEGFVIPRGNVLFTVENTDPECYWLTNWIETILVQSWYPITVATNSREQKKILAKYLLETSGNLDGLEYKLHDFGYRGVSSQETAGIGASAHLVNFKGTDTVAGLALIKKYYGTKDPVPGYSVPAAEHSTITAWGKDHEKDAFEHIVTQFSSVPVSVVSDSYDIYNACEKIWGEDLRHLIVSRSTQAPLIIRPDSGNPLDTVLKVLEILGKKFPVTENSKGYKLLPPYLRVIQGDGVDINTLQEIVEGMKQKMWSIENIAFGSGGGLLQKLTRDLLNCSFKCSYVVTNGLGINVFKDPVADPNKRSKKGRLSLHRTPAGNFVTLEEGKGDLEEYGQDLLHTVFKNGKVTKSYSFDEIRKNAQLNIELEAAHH
smiles,measurement,setting,value
O=C(/C=C/c1cccnc1)NCCCCC1CCN(C(=O)c2ccccc2)CC1 [FK866],Nampt activity,recombinant Nampt,significantly decreased
"Cl.O=c1cc(N2CCOCC2)oc2c(-c3ccccc3)cccc12 [LY294002, 2-(4-Morpholinyl)-8-phenyl-1(4H)-benzopyran−4-one hydrochloride]",P7C3 based pAkt expression,PI3K,attenuated
COc1cccc(NCC(F)Cn2c3ccc(Br)cc3c3cc(Br)ccc32)c1 (stereo not drawn) [P7C3 A20],fatty liver syndrome,[1],rescued
